Reference: patent publication US9714236B2, “Compounds and methods for inhibiting JAK” (AstraZeneca AB, priority 2015, dated 2017)

Legend:
Assay type in all cases: biochemical
[1] = biological target: recombinant JAK3 (amino acids 781-1124) (Homo sapiens (Human), UniProt P52333); assay: Enzyme inhibition studies, JAK3 (peptide phosphorylation, Caliper LC3000); settings: ATP concentration of the tabulated values not stated (assayed at ATP Km 3 μM and at 5 mM)
Description: (§1) Enzyme inhibition studies were performed using recombinant JAK1 (amino acids 866-1154, Life Technologies, #PV4774, Carlsbad, Calif.), JAK2 (amino acids 831-1132), or JAK3 (amino acids 781-1124) under buffer conditions of 50 mM HEPES pH 7.3, 1 mM DTT, 0.01% Tween® 20, 50 μg/mL BSA, and 10 mM MgCl2. JAK enzyme was expressed as an N-terminal GST fusion in insect cells and purified by glutathione-affinity and size-exclusion chromatographies. […] Phosphorylated and unphosphorylated peptides were separated and quantified by a Caliper LC3000 system (Caliper Life Sciences, MA) for calculating percent inhibition.

[2] = biological target: recombinant JAK2 (amino acids 831-1132) (Homo sapiens (Human), UniProt O60674); assay: Enzyme inhibition studies, JAK2 (peptide phosphorylation, Caliper LC3000); settings: ATP concentration of the tabulated values not stated (assayed at ATP Km 15 μM and at 5 mM)
Chain of recombinant JAK2 (amino acids 831-1132) (O60674 831-1132): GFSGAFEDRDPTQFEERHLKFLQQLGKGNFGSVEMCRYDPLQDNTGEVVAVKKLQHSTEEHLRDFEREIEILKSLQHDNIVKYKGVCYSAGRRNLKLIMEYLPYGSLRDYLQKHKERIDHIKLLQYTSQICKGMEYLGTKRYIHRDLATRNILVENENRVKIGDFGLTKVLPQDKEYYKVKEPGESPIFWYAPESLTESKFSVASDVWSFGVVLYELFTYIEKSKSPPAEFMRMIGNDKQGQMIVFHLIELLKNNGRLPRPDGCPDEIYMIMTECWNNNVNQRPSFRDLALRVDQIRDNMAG
Description: as §1

[3] = biological target: recombinant JAK1 (amino acids 866-1154) (Homo sapiens (Human), UniProt P23458); assay: Enzyme inhibition studies, JAK1 (peptide phosphorylation, Caliper LC3000); settings: ATP concentration not given (assayed at ATP Km 55 μM and at 5 mM)
Chain of recombinant JAK1 (amino acids 866-1154) (P23458 866-1154): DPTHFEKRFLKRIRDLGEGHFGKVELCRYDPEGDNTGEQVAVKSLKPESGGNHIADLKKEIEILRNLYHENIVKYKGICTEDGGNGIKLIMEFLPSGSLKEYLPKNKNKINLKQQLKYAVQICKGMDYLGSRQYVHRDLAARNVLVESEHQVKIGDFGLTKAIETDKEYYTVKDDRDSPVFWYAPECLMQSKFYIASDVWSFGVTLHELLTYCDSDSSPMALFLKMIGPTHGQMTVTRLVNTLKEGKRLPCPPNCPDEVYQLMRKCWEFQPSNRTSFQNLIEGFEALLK
Description: as §1

Chain of recombinant JAK3 (amino acids 781-1124) (P52333 781-1124): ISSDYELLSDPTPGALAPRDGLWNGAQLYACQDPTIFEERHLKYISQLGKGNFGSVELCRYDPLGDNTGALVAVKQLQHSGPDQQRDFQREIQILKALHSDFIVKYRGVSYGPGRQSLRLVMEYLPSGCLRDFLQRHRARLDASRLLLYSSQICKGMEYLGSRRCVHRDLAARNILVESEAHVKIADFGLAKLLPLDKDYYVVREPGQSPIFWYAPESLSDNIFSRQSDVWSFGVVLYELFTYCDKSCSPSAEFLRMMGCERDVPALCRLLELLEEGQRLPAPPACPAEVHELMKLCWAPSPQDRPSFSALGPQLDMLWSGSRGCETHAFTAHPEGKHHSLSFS

IC50 [1] | IC50 [2] | IC50 [3] | Compound
> 30 µM | 17.3 µM | 0.057 µM | COc1nn(C)cc1Nc1ncc(C)c(-c2c[nH]c3c(NC(=O)[C@@H](C)N4CCN(C)[C@H](C)C4)cccc23)n1 [Example 18, (2R)-2-[(3R)-3,4-dimethylpiperazin-1-yl]-N-(3-{2-[(3-methoxy-1-methyl-1H-pyrazol-4-yl)amino]-5-methylpyrimidin-4-yl}-1H-indol-7-yl)propanamide]
> 30 µM | > 30 µM | 0.296 µM | COc1nn(C)cc1Nc1ncc(C)c(-c2c[nH]c3c(NC(=O)[C@@H](C)N4CCN(C)C[C@@H]4C)cccc23)n1 [Example 19, (2R)-2-[(2S)-2,4-dimethylpiperazin-1-yl]-N-(3-{2-[(3-methoxy-1-methyl-1H-pyrazol-4-yl)amino]-5-methylpyrimidin-4-yl}-1H-indol-7-yl)propanamide]
> 30 µM | 17.2 µM | 0.051 µM | CCOc1nn(C)cc1Nc1ncc(C)c(-c2c[nH]c3c(NC(=O)[C@@H](C)N4CCN(CC)CC4)cccc23)n1 [Example 20, (2R)-N-(3-{2-[(3-ethoxy-1-methyl-1H-pyrazol-4-yl)amino]-5-methylpyrimidin-4-yl}-1H-indol-7-yl)-2-(4-ethylpiperazin-1-yl)propanamide]
> 30 µM | > 30 µM | 0.184 µM | CCOc1nn(C)cc1Nc1ncc(C)c(-c2c[nH]c3c(NC(=O)[C@@H](C)N4CCN(CCOC)CC4)cccc23)n1 [Example 21, (2R)-N-(3-{2-[(3-ethoxy-1-methyl-1H-pyrazol-4-yl)amino]-5-methylpyrimidin-4-yl}-1H-indol-7-yl)-2-[4-(2-methoxyethyl)piperazin-1-yl]propanamide]
> 30 µM | > 30 µM | 0.49 µM | CCOc1nn(C)cc1Nc1ncc(C)c(-c2c[nH]c3c(NC(=O)[C@@H](C)N4CCN(C)C[C@@H]4C)cccc23)n1 [Example 22, (2R)-2-[(2S)-2,4-dimethylpiperazin-1-yl]-N-(3-{2-[(3-ethoxy-1-methyl-1H-pyrazol-4-yl)amino]-5-methylpyrimidin-4-yl}-1H-indol-7-yl)propanamide]
> 30 µM | 25.7 µM | 0.029 µM | CCOc1nn(C)cc1Nc1ncc(C)c(-c2c[nH]c3c(NC(=O)[C@@H](C)N4CCN(C)C[C@H]4C)cccc23)n1 [Example 23, (2R)-2-[(2R)-2,4-dimethylpiperazin-1-yl]-N-(3-{2-[(3-ethoxy-1-methyl-1H-pyrazol-4-yl)amino]-5-methylpyrimidin-4-yl}-1H-indol-7-yl)propanamide]
> 30 µM | > 30 µM | 0.113 µM | CCOc1nn(C)cc1Nc1ncc(C)c(-c2c[nH]c3c(NC(=O)[C@@H](C)N4CCN(C)[C@H](C)C4)cccc23)n1 [Example 24, (2R)-2-[(3R)-3,4-dimethylpiperazin-1-yl]-N-(3-{2-[(3-ethoxy-1-methyl-1H-pyrazol-4-yl)amino]-5-methylpyrimidin-4-yl}-1H-indol-7-yl)propanamide]
> 30 µM | 6.62 µM | 0.019 µM | COc1nn(C)cc1Nc1ncc(F)c(-c2c[nH]c3c(NC(=O)[C@@H](C)N4CCN(C)CC4)cccc23)n1 [Example 25, (2R)-N-(3-{5-Fluoro-2-[(3-methoxy-1-methyl-1H-pyrazol-4-yl)amino]pyrimidin-4-yl}-1H-indol-7-yl)-2-(4-methylpiperazin-1-yl)propanamide]
> 30 µM | 16.7 µM | 0.069 µM | COc1nn(C)cc1Nc1nccc(-c2c[nH]c3c(NC(=O)[C@@H](C)N4CCN(C)[C@@H](C)C4)cccc23)n1 [Example 26, (2R)-2-[(3S)-3,4-dimethylpiperazin-1-yl]-N-(3-{2-[(3-methoxy-1-methyl-1H-pyrazol-4-yl)amino]pyrimidin-4-yl}-1H-indol-7-yl)propanamide]
> 30 µM | > 30 µM | 0.575 µM | COCCN1CCN([C@H](C)C(=O)Nc2cccc3c(-c4ccnc(Nc5cn(C)nc5OC)n4)c[nH]c23)CC1 [Example 27, (2R)-2-[4-(2-methoxyethyl)piperazin-1-yl]-N-(3-{2-[(3-methoxy-1-methyl-1H-pyrazol-4-yl)amino]pyrimidin-4-yl}-1H-indol-7-yl)propanamide]
> 30 µM | 11.8 µM | 0.106 µM | CCN1CCN([C@H](C)C(=O)Nc2cccc3c(-c4ccnc(Nc5cn(C)nc5OC)n4)c[nH]c23)CC1 [Example 28]
> 30 µM | > 30 µM | 0.304 µM | COc1nn(C)cc1Nc1nccc(-c2c[nH]c3c(NC(=O)[C@@H](C)N4CCN(C)[C@H](C)C4)cccc23)n1 [Example 30, (2R)-2-[(3R)-3,4-dimethylpiperazin-1-yl]-N-(3-{2-[(3-methoxy-1-methyl-1H-pyrazol-4-yl)amino]pyrimidin-4-yl}-1H-indol-7-yl)propanamide]
> 30 µM | 19.8 µM | 0.015 µM | CCOc1nn(C)cc1Nc1ncc(C)c(-c2c[nH]c3c(NC(=O)[C@@H](C)N4CCN(C)[C@@H](C)C4)cccc23)n1 [Example 31a, (2R)-2-[(3S)-3,4-dimethylpiperazin-1-yl]-N-(3-{2-[(3-ethoxy-1-methyl-1H-pyrazol-4-yl)amino]-5-methylpyrimidin-4-yl}-1H-indol-7-yl)propanamide]
> 30 µM | > 30 µM | 0.454 µM | CCOc1nn(C)cc1Nc1ncc(C)c(-c2c[nH]c3c(NC(=O)[C@H](C)N4CCN(C)[C@@H](C)C4)cccc23)n1 [Example 31b, (2S)-2-[(3S)-3,4-dimethylpiperazin-1-yl]-N-(3-{2-[(3-ethoxy-1-methyl-1H-pyrazol-4-yl)amino]-5-methylpyrimidin-4-yl}-1H-indol-7-yl)propanamide]
> 30 µM | > 30 µM | 0.272 µM | COc1nn(C)cc1Nc1ncc(C)c(-c2c[nH]c3c(NC(=O)[C@H](C)N4CCN(C)CC4)cccc23)n1 [Example 33, (2S)-N-(3-{2-[(3-methoxy-1-methyl-1H-pyrazol-4-yl)amino]-5-methylpyrimidin-4-yl}-1H-indol-7-yl)-2-(4-methylpiperazin-1-yl)propanamide]
> 30 µM | 5.37 µM | 0.01 µM | COc1nn(C)cc1Nc1ncc(C)c(-c2c[nH]c3c(NC(=O)[C@@H](C)N4CCN(C)CC4)cccc23)n1 [Example 34, (2R)-N-(3-{2-[(3-Methoxy-1-methyl-1H-pyrazol-4-yl)amino]-5-methylpyrimidin-4-yl}-1H-indol-7-yl)-2-(4-methylpiperazin-1-yl)propanamide]
> 30 µM | 17 µM | 0.02 µM | CCOc1nn(C)cc1Nc1ncc(C)c(-c2c[nH]c3c(NC(=O)[C@@H](C)N4CCN(C)CC4)cccc23)n1 [Example 35, (2R)-N-(3-{2-[(3-ethoxy-1-methyl-1H-pyrazol-4-yl)amino]-5-methylpyrimidin-4-yl}-1H-indol-7-yl)-2-(4-methylpiperazin-1-yl)propanamide]
19.1 µM | 1.76 µM | 0.007 µM | COc1nn(C)cc1Nc1ncc(Cl)c(-c2c[nH]c3c(NC(=O)[C@@H](C)N4CCN(C)CC4)cccc23)n1 [Example 36, (2R)-N-(3-{5-chloro-2-[(3-methoxy-1-methyl-1H-pyrazol-4-yl)amino]pyrimidin-4-yl}-1H-indol-7-yl)-2-(4-methylpiperazin-1-yl)propanamide]
15.4 µM | 1.58 µM | 0.008 µM | COc1nn(C)cc1Nc1ncc(Br)c(-c2c[nH]c3c(NC(=O)[C@@H](C)N4CCN(C)CC4)cccc23)n1 [Example 37, (2R)-N-(3-{5-bromo-2-[(3-methoxy-1-methyl-1H-pyrazol-4-yl)amino]pyrimidin-4-yl}-1H-indol-7-yl)-2-(4-methylpiperazin-1-yl)propanamide]
> 30 µM | 6.48 µM | 0.013 µM | COc1nn(C)cc1Nc1ncc(C)c(-c2c[nH]c3c(NC(=O)[C@@H](C)N4CCN(C)C[C@H]4C)cccc23)n1 [Example 38, (2R)-2-[(2R)-2,4-dimethylpiperazin-1-yl]-N-(3-{2-[(3-methoxy-1-methyl-1H-pyrazol-4-yl)amino]-5-methylpyrimidin-4-yl}-1H-indol-7-yl)propanamide]
> 30 µM | 25.5 µM | 0.055 µM | CCOc1nn(C)cc1Nc1ncc(F)c(-c2c[nH]c3c(NC(=O)[C@@H](C)N4CCN(C)CC4)cccc23)n1 [Example 39, (2R)-N-(3-{2-[(3-ethoxy-1-methyl-1H-pyrazol-4-yl)amino]-5-fluoropyrimidin-4-yl}-1H-indol-7-yl)-2-(4-methylpiperazin-1-yl)propanamide]
> 30 µM | 8.93 µM | 0.024 µM | CCOc1nn(C)cc1Nc1ncc(Cl)c(-c2c[nH]c3c(NC(=O)[C@@H](C)N4CCN(C)CC4)cccc23)n1 [Example 40, (2R)-N-(3-{5-chloro-2-[(3-ethoxy-1-methyl-1H-pyrazol-4-yl)amino]pyrimidin-4-yl}-1H-indol-7-yl)-2-(4-methylpiperazin-1-yl)propanamide]
> 30 µM | 2.58 µM | < 0.005 µM | Cc1cnc(Nc2cn(C)nc2C)nc1-c1c[nH]c2c(NC(=O)[C@@H](C)N3CCN(C)CC3)cccc12 [Example 41, (2R)-N-(3-{2-[(1,3-dimethyl-1H-pyrazol-4-yl)amino]-5-methylpyrimidin-4-yl}-1H-indol-7-yl)-2-(4-methylpiperazin-1-yl)propanamide]
